Source: patent publication US12281098B2, “Five-membered-fused six-membered compound, preparation method, pharmaceutical composition and use” (HANGZHOU POLYMED BIOPHARMACEUTICALS, INC., priority 2021, dated 2025)
Where two headings read alike, the source gives them in different places.

How the values were obtained:
[1] = target: T1, IRAK4 kinase (Homo sapiens, UniProt Q9NWZ3); experiment: Compound inhibition of IRAK4 kinase activity (fluorescence microfluidic mobility shift assay); assay type: biochemical; settings: 10 μM ATP, 6 nM IRAK4 kinase
T1 construct: purchased Carna 09-145
T1 sequence (Q9NWZ3 1-460): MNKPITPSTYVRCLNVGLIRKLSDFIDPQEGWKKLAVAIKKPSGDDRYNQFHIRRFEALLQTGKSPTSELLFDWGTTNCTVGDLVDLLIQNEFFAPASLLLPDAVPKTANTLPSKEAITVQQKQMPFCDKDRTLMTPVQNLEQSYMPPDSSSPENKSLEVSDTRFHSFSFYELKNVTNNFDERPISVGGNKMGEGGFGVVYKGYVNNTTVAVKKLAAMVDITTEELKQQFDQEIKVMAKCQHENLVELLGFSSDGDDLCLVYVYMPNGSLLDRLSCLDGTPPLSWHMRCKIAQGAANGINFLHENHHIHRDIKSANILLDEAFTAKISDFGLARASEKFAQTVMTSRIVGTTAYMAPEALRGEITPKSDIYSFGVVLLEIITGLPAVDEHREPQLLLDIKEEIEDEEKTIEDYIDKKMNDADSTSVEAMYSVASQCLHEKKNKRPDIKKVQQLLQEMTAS
Experimental: Based on the experimental method of fluorescence microfluidic mobility shift assay, the IC50 value of the compound for competitive binding of ATP to IRAK4 kinase was determined. The initial detection concentration of the compound was 10 μM, which was 4-fold serially diluted to 0.38 nM and assayed in duplicate. In this case, commercially available staurosporine was the standard control for the assay.
1) IRAK4 kinase was dissolved in kinase buffer (50 mM HEPES pH 7.5, 10 mM MgCl2, 2 mM DDT, and 0.01% Brij-35) at a final concentration of 6 nM.
2) The substrate peptide FAM-P8 and ATP were dissolved in the above kinase buffer, and the final concentrations of the substrate peptide FAM-P8 and ATP for IRAK4 were 3 μM and 10 μM, respectively.
3) Compound dilution: The compound was first diluted to 50 μM, and then 4-fold serially diluted with DMSO. In this case, the solution without compound and kinase served as the blank control, corresponding to the “minimum value” shown below; the solution without compound but containing kinase, adenosine 5′-triphosphate disodium salt hydrate, DMSO, and the buffer served as the positive control, corresponding to the “maximum value” shown below.
4) Kinase reaction and termination: 10 μL of the kinase buffer was added to a 384-well plate containing 5 μL of the compound to be tested, and the mixture was incubated at room temperature for 10 minutes; another 10 μL of buffer containing the substrate peptide and adenosine 5′-triphosphate disodium salt hydrate was added to the 384-well plate, and after incubation at 28° C. for 1 hour, 25 μL of termination solution (100 mM HEPES pH 7.5, 50 mM EDTA, 0.2% Coating Reagent #3, and 0.015% Brij-35) was added to each well to terminate the reaction.
5) Data reading: CaliperEZ Reader II instrument was used to read the conversion rate data. Setting conditions: downstream voltage as −500 V, upstream voltage as −2250 V, base pressure as −0.5 PSI, and screening pressure as −1.2 PSI.
6) Data calculation: the conversion rate data was copied from CaliperEZ Reader II, and the conversion rate was converted into inhibition rate data. The calculation formula is as follows: Inhibition percentage (%)=(maximum value−conversion rate)/(maximum value−minimum value)*100%
IC50 values were fitted with XLFit excel add-in version 5.4.0.8.

[2] = system: THP-1 cells; experiment: LPS-stimulated cytokine (TNFα) release in THP-1; assay type: cell-based, Human; settings: LPS 100 ng/mL, 5 hours, TNF-α ELISA, read-out: Inhibition IC50 (nM) of cytokines (TNFα) against LPS-stimulated inflammatory responses in THP-1 cells
Experimental: THP-1 cells were cultured in suspension in RPMI 1640 complete medium (containing 10% serum, 1% penicillin-streptomycin, and 55 μM β-mercaptoethanol). THP-1 cells were collected, centrifuged at 350×g at room temperature to discard the supernatant, and resuspended in RPMI 1640 complete medium to a concentration of 2×10^6 cells per mL. THP-1 cells were spread into a 96-well plate at a concentration of 2×10^5 cells per well, and different concentrations of the compound to be tested were added thereto. The plate was incubated in a 37° C. cell culture incubator with 5% CO2 for 60 minutes. 50 μL of LPS at a final concentration of 100 ng/mL was added to a 96-well plate, and incubated in a 37° C. cell culture incubator for 5 hours. The cell culture plate was then taken out from the incubator, and centrifuged at 350×g at low temperature for 5 minutes to collect 150 μL of the supernatant. Referring to the instructions in the Human TNF-α Duoset ELISA Kit, the level of TNF-α in the cell culture supernatant was detected.
Data on the inhibitory activity of cytokines (TNFα) against LPS-stimulated inflammatory responses in THP-1 cells are shown in Tables 3 and 4.

[3] = target: T2, IRAK4 protein in THP-1 cells (Homo sapiens, UniProt Q9NWZ3); experiment: IRAK4 protein degradation in THP-1 induced by PROTAC (Western Blot); assay type: cell-based; settings: GAPDH internal reference
T2 construct: endogenous in cells; host or cells: THP-1
T2 sequence (Q9NWZ3 1-460): T1 sequence (Q9NWZ3 1-460)
Experimental: 3.1. Based on the experimental method of immunoblot, i.e., Western Blot, THP-1 cell samples processed by gel electrophoresis were stained with specific antibodies, and the degradation activity of the compounds on the IRAK4 protein in THP-1 cells was determined by analyzing the position of the staining and the depth of the staining. The detection concentrations of the compounds were 0 μM, 0.3 μM, 1 μM, and 3 μM, and the compounds were used to treat the cells for 8 hours, 16 hours, 24 hours, and 48 hours. In this case, glyceraldehyde-3-phosphate dehydrogenase (GAPDH) was the internal reference protein for the assay.
THP-1 cells were spread into a 6-well plate at a density of 1.5×10^6 cells per mL, and incubated in a 37° C. cell culture incubator with 5% CO2 for 2 hours. The compound was diluted with DMSO to 0.6 mM, 0.2 mM, and 0.06 mM, respectively. 10 μL of compound solution was added to the corresponding wells, and the plate was incubated in the incubator for 16 hours, 24 hours, and 48 hours, respectively. The drug-treated THP-1 cells were collected from the wells, added with 120 μL of RIPA lysis buffer containing protease inhibitor, phosphatase inhibitor cocktail 2, and phosphatase inhibitor cocktail 3, and lysed on wet ice for 30 minutes. The cell lysate was then centrifuged at low temperature and high speed for 5 minutes, and the supernatant was collected. Referring to the instructions in the Pierce™ BCA Protein Assay Kit, the cell samples were tested for protein concentration.
The samples were adjusted to the same concentration using lysis buffer and NuPAGE® LDS sample buffer containing 1 M DTT. The samples were heated at 95° C. for 5 minutes and centrifuged at low temperature and high speed. 20 μL of prepared protein sample and 4 μL of PageRuler Prestained Protein Ladder were added to the gel wells. The mixture was electrophoresed at a voltage of 80 V for 0.5 hours, and then electrophoresed for another 1.5 hours after the voltage was adjusted to 120 V. The gel was removed and proteins in the gel were transferred to IBlot™ 2 Transfer Stack at a voltage of 20V. After successful membrane transfer, the bands were cut out at 65 kDa to 40 kDa and 40 kDa to 30 kDa, respectively. The membrane was blocked with 5% non-fat milk at room temperature for 1 hour. The membrane was washed three times with 1×TBST, and incubated with IRAK4 antibody working solution at 4° C. overnight. The IRAK4 antibody working solution was discarded, and the membrane was washed three times with 1×TBST. After the corresponding membrane was incubated with Goat Anti-Rabbit IgG H&L (HRP) working solution and Goat Anti-Mouse IgG H&L (HRP) working solution at room temperature for 1 hour, the antibody working solutions were discarded, and the membrane was washed three times with 1×TBST. Referring to the instructions in the SuperSignal™ West Femto Maximum Sensitivity Substrate Kit, the reagents in the kit were mixed in equal volume proportions to prepare a luminescent mixture, and the membrane was incubated for 1 minute and removed for exposure.
WB assay: The results 24 hours after administration at 1 μM were divided into estimated <25%, <50%, <75%, and <100%.

IC50 ([2]; Homo sapiens, THP-1, Table 4) [nM] | Compound | IC50 ([1]; Table 1) [nM] | IC50 ([1]; Table 2) [nM] | Western Blot results 24 hours after administration at a drug concentration of 1 μM ([3]; Table 6, estimated bins) [%] | IC50 ([2]; Homo sapiens, THP-1, Table 3) [nM] | IC50 ([2]; Table 4) [nM] | Western Blot results 24 hours after administration at a drug concentration of 1 μM ([3]; Table 5, estimated bins) [%]
1000 to 10000 | CC(C)(O)c1cc2nn(CCN3CCN(CC(=O)N4CCC5(CC4)CN(c4cccc6c4C(=O)N(C4CCC(=O)NC4=O)C6=O)C5)C3=O)cc2cc1NC(=O)c1cccc(C(F)(F)F)n1 (stereo not drawn) [III-5] | 100 to 1000 | 100 to 1000 | <25 |  |  | 
 | Cc1ncsc1-c1ccc([C@H](C)NC(=O)[C@@H]2C[C@@H](O)CN2C(=O)[C@@H](NC(=O)C2CC3(CCN(C(=O)CN4CCN(CCn5cc6cc(NC(=O)c7cccc(C(F)(F)F)n7)c(C(C)(C)O)cc6n5)C4=O)CC3)C2)C(C)(C)C)cc1 [III-16] | 100 to 1000 | 100 to 1000 |  | 1000 to 10000 | 1000 to 10000 | <50
 | Cc1ncsc1-c1ccc([C@H](C)NC(=O)[C@@H]2C[C@@H](O)CN2C(=O)[C@@H](NC(=O)C2CCC3(CC2)CCN(C(=O)CN2CCN(CCn4cc5cc(NC(=O)c6cccc(C(F)(F)F)n6)c(C(C)(C)O)cc5n4)C2=O)CC3)C(C)(C)C)cc1 [III-17] | 100 to 1000 | 100 to 1000 | <25 | 1000 to 10000 | 1000 to 10000 | <25
